# Source: ChEMBL document CHEMBL3621078, “Synthesis, DNA binding, docking and photocleavage studies of quinolinyl chalcones” (Medchemcomm, 2014)
# Active and inactive are the calls of the source. The rule behind the calls is not given here.
# Experiments:
# Escherichia coli [1] = experiment: Photo-cleavage activity in Escherichia coli supercoiled pUC19 DNA assessed as formation of open circular form of DNA at 60 uM measured 2 hrs after UV-light irradiation by gel electrophoresis analysis
# Escherichia coli [2] = experiment: Photo-cleavage activity in Escherichia coli supercoiled pUC19 DNA assessed as formation of open circular form of DNA at 140 uM measured 2 hrs after UV-light irradiation by gel electrophoresis analysis
# Calf thymus DNA [3] = experiment: Binding affinity to calf thymus DNA assessed as fluorescence quenching at DNA/compound ratio 4 by fluorescence spectrophotometer analysis; type: nucleic-acid assay; details: Bos taurus
# Escherichia coli [4] = experiment: Photo-cleavage activity in Escherichia coli supercoiled pUC19 DNA assessed as formation of nicked form of DNA at 20 to 40 uM measured 2 hrs after UV-light irradiation by gel electrophoresis analysis
# Escherichia coli [5] = experiment: Photo-cleavage activity in Escherichia coli supercoiled pUC19 DNA assessed as formation of nicked form of DNA at 80 uM measured 2 hrs after UV-light irradiation by gel electrophoresis analysis
# Calf thymus DNA [6] = experiment: Binding affinity to calf thymus DNA assessed as relative viscosity after 5 mins by semimicrodilution capillary viscometer analysis; type: nucleic-acid assay; details: Bos taurus
# Escherichia coli [7] = experiment: Photo-cleavage activity in Escherichia coli supercoiled pUC19 DNA assessed as formation of linear form of DNA at 80 uM measured 2 hrs after UV-light irradiation by gel electrophoresis analysis
# Calf thymus DNA [8] = experiment: Binding affinity to calf thymus DNA by UV-visible absorption spectroscopy; type: nucleic-acid assay; details: for Kb: Bos taurus
# Escherichia coli [9] = experiment: Photo-cleavage activity in Escherichia coli supercoiled pUC19 DNA assessed as formation of open circular form of DNA at 40 uM measured 2 hrs after UV-light irradiation by gel electrophoresis analysis
# Escherichia coli [10] = experiment: Photo-cleavage activity in Escherichia coli supercoiled pUC19 DNA assessed as formation of open circular form of DNA at 80 uM measured 2 hrs after UV-light irradiation by gel electrophoresis analysis
smiles,measurement,setting,value
COc1ccc(C(=O)/C=C/c2cc3ccccc3nc2Cl)cc1,Activity,Escherichia coli [1],52%
same,Activity,Escherichia coli [2],58%
same,Activity,Calf thymus DNA [3],Active
same,Activity,Escherichia coli [4],8%
same,Activity,Escherichia coli [5],70%
same,Activity,Calf thymus DNA [6],Active
same,Activity,Escherichia coli [7],24%
same,Kb,Calf thymus DNA [8],2.8 ×10⁴ /M
O=C(/C=C/c1cc2ccccc2nc1Cl)c1ccc(Cl)cc1,Activity,Escherichia coli [1],54%
same,Activity,Calf thymus DNA [3],Active
same,Activity,Escherichia coli [4],8%
same,Activity,Escherichia coli [5],70%
same,Activity,Calf thymus DNA [6],Active
same,Activity,Escherichia coli [7],24%
same,Ki,Calf thymus DNA [8],562 nM
same,Kb,Calf thymus DNA [8],5.13 ×10⁴ /M
O=C(/C=C/c1cc2ccccc2nc1Cl)c1ccccc1,Activity,Escherichia coli [1],50%
same,Activity,Calf thymus DNA [3],Active
same,Activity,Escherichia coli [4],8%
same,Activity,Escherichia coli [5],70%
same,Activity,Calf thymus DNA [6],Active
same,Activity,Escherichia coli [7],24%
same,Ki,Calf thymus DNA [8],572 nM
same,Kb,Calf thymus DNA [8],5.2 ×10⁴ /M
Cc1ccc(C(=O)/C=C/c2cc3ccccc3nc2Cl)cc1,Activity,Escherichia coli [1],51%
same,Activity,Calf thymus DNA [3],Active
same,Activity,Escherichia coli [4],8%
same,Activity,Escherichia coli [5],70%
same,Activity,Calf thymus DNA [6],Active
same,Activity,Escherichia coli [7],24%
same,Ki,Calf thymus DNA [8],540 nM
same,Kb,Calf thymus DNA [8],4.9 ×10⁴ /M
O=C(/C=C/c1cc2ccccc2nc1Cl)c1ccc(O)cc1,Activity,Escherichia coli [9],24%
same,Activity,Escherichia coli [1],53%
same,Activity,Calf thymus DNA [3],Active
same,Activity,Escherichia coli [4],8%
same,Activity,Escherichia coli [5],70%
same,Activity,Escherichia coli [10],70%
same,Activity,Calf thymus DNA [6],Active
same,Activity,Escherichia coli [7],24%
same,Kb,Calf thymus DNA [8],1.9 ×10⁴ /M
O=C(/C=C/c1cc2ccccc2nc1Cl)c1ccc([N+](=O)[O-])cc1,Activity,Escherichia coli [1],56%
same,Activity,Calf thymus DNA [3],Active
same,Activity,Escherichia coli [4],8%
same,Activity,Escherichia coli [5],70%
same,Activity,Calf thymus DNA [6],Active
same,Activity,Escherichia coli [7],24%
same,Ki,Calf thymus DNA [8],531 nM
same,Kb,Calf thymus DNA [8],4.91 ×10⁴ /M
O=C(/C=C/c1cc2ccccc2nc1Cl)c1ccc(Br)cc1,Activity,Escherichia coli [1],55%
same,Activity,Calf thymus DNA [3],Active
same,Activity,Escherichia coli [4],8%
same,Activity,Escherichia coli [5],70%
same,Activity,Calf thymus DNA [6],Active
same,Activity,Escherichia coli [7],24%
same,Ki,Calf thymus DNA [8],468 nM
same,Kb,Calf thymus DNA [8],4.2 ×10⁴ /M
CNc1ccc(C(=O)/C=C/c2cc3ccccc3nc2Cl)cc1,Activity,Escherichia coli [1],57%
same,Activity,Escherichia coli [4],8%
same,Activity,Escherichia coli [5],40%
same,Activity,Escherichia coli [10],40%
same,Activity,Escherichia coli [7],24%
same,Kb,Calf thymus DNA [8],3.5 ×10⁴ /M
